Data taken from US20090209537A1, “AURORA INHIBITORS” (Kyowa Hakko Kirin Co., Ltd., priority 2006, published 2009).

Experiments:
Aurora A protein = molecular target: T1, Aurora A protein (Homo sapiens, UniProt O14965); experiment: Aurora A inhibitory activity (IMAP); assay type: biochemical; conditions: at a concentration of 1 μmol/L; 10 μmol/L ATP
T1 construct: purchased Carna Biosciences
T1 sequence (O14965 1-403): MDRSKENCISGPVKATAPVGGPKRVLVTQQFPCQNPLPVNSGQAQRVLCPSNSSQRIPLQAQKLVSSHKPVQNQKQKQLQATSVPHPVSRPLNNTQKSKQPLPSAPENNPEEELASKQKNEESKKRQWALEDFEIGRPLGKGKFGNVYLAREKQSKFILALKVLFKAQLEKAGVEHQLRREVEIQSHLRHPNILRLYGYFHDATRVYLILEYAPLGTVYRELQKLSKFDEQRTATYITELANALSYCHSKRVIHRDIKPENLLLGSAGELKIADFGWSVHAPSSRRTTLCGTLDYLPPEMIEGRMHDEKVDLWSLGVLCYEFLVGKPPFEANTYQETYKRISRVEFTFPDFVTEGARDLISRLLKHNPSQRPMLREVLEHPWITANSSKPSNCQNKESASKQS
Procedure: The following procedure was employed to measure the Aurora A inhibitory activity.
(§1) A 20 μL sample containing Aurora A protein (Carna Biosciences) at a final concentration of 0.35 mg/mL, 20 mmol/L HEPES (pH 7.4), 0.01% Tween-20, 2 mmol/L DTT, 100 nmol/L PKAtide, 1 mmol/L magnesium acetate, 10 μmol/L adenosine-5′-triphosphate (ATP), 1% dimethylsulfoxide (DMSO), and 1 μmol/L test compound was prepared and enzyme reaction was conducted at room temperature for 60 minutes. Phosphorylation reaction was detected by using IMAP Screening Express kit (Molecular Devices Corp., R8073).
(§2) While assuming the observed value of a control to which ATP was added to be 100% and the observed value of a control to which no ATP was added to be 0%, the relative activity (%) of the radio activity of a sample containing a test compound was calculated, and the difference between 100 and the obtained percentage value was assumed to be the Aurora A inhibitory rate (%) of that test compound.

Aurora B protein = molecular target: T2, Aurora B protein (Homo sapiens, UniProt Q96GD4); experiment: Aurora B inhibitory activity (IMAP); assay type: biochemical; conditions: at a concentration of 1 μmol/L; 10 μmol/L ATP
T2 construct: purchased Carna Biosciences
T2 sequence (Q96GD4 whole entry): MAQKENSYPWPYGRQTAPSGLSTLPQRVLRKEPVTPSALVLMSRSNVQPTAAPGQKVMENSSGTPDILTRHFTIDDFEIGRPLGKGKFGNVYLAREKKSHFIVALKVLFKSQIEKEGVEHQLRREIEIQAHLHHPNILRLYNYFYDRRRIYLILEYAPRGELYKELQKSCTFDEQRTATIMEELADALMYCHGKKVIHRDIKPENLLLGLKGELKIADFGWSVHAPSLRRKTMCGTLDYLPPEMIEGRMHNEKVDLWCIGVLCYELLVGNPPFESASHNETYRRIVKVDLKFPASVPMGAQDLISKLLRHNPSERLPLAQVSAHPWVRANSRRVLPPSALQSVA
T2 sequence (Q9NQS7 803-918 partner limits assumed): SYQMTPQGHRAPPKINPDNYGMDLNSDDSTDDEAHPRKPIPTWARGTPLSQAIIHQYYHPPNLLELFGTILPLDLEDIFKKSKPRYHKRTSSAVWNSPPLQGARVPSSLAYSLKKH
Procedure: The following procedure was employed to measure the Aurora B inhibitory activity.
as §1, with “Aurora B” for “Aurora A”, “of 0.3” for “of 0.35”, “nmol/L Histone H3,” for “nmol/L PKAtide,”, “μmol/L ATP,” for “μmol/L adenosine-5′-triphosphate (ATP),”, “1% DMSO,” for “1% dimethylsulfoxide (DMSO),”
as §2, with “Aurora B” for “Aurora A”

[1] = system: human pancreatic cancer cell line (MIA-PaCa-2); experiment: Cytostatic activity against human pancreatic cancer cell line (WST-1); assay type: cell-based; conditions: at a concentration of 10 μmol/L, 72 hours, read-out: growth inhibitory activity
Procedure: The cytostatic rate of Compound (I) against a human pancreatic cancer cell line (MIA-PaCa-2) was measured according to the following procedure.
MIA-PaCa-2 cells were cultured in a minimum essential medium (MEM) (GIBCO) containing a 10% fetal calf serum (FCS).
Each well of a TC Microwell 96F plate (Nalge Nunc) was inoculated with 50 μL of MIA-PaCa-2 cells at a density of 1000 cells/well, and the cells were incubated at 37° C. for 24 hours in a 5% carbon dioxide gas incubator. To each well, 50 μL of a solution containing a test compound prepared by stepwise dilution with the incubation medium of the respective cells was added and the resulting mixture was again incubated at 37° C. for 72 hours in a 5% carbon dioxide gas incubator. To each well, 10 μL of a WST-1 reagent (4-[3-(4-iodophenyl)-2-(4-nitrophenyl)-2H-5-tetrazolio]-1,3-benzene disulfonate sodium salt) (Roche Diagnostics K. K.) was added, followed by incubation at 37° C. for 2 hours and analysis with a microplate spectrometer, SpectraMax 340PC (Molecular Devices) to determine the absorbance at 450 nm (reference wavelength: 690 nm). The cytostatic rate was determined from the equation below by assuming the absorbance of the well containing cells similarly cultured by adding a solvent of the test compound solution to be 100%. Furthermore, the observed absorbance of a blank to which WST-1 was added immediately after addition of the solvent was used.

SMILES | inhibition at 1 µM (Aurora A protein) [%] | inhibition at 1 µM (Aurora B protein) [%] | inhibition at 10 µM [1] [%]
Nc1cc(/C=C/c2n[nH]c3ccccc23)ccc1OCCN1CCOCC1 [Compound 4] | ≥ 90 | ≥ 90 | ≥ 50
CC(=O)N1CCN(C(=O)c2ccc(/C=C/c3n[nH]c4ccccc34)cc2)CC1 [Compound 6] | ≥ 90 | ≥ 90 | ≥ 50
COCC(=O)N1CCN(C(=O)c2ccc(/C=C/c3n[nH]c4ccccc34)cc2)CC1 [Compound 7] | ≥ 90 | ≥ 90 | ≥ 50
